# Values joined by “and” are separate entries in the source; they are usually repeats but may differ in a detail not shown here. Equal entries are not always repeated.
# Experiments:
# [1] = system: Plasmodium falciparum; test: (§1) In vitro inhibitory concentration against chloroquine-enhancing Plasmodium falciparum FCM29 at 1.5 ug/mL; assay type: functional, organism-based
# [2] = system: Plasmodium falciparum; test: (§2) In vitro inhibitory concentration against chloroquine-enhancing Plasmodium falciparum FCM29 at 2 ug/mL; assay type: functional, organism-based
# [3] = system: Plasmodium falciparum; test: (§3) In vitro inhibitory concentration against chloroquine-enhancing Plasmodium falciparum FCM29 at 3 ug/mL; assay type: functional, organism-based
# [4] = system: Plasmodium falciparum; test: (§4) In vitro inhibitory concentration against Plasmodium falciparum FCM29; assay type: functional, organism-based
# [5] = system: Plasmodium falciparum; test: as §2; assay type: functional
# [6] = system: Plasmodium falciparum; test: as §3; assay type: functional
# [7] = system: Plasmodium falciparum; test: (§5) In vitro inhibitory concentration against Plasmodium falciparum FCM29 at 1 ug/mL; assay type: functional, organism-based
# [8] = system: Plasmodium falciparum; test: as §4; assay type: functional
# [9] = system: Plasmodium falciparum; test: as §5; assay type: functional
# [10] = system: Plasmodium falciparum; test: as §1; assay type: functional
# [11] = system: Plasmodium falciparum; test: In vitro inhibition against Plasmodium falciparum FCM29 at 2 ug/mL; assay type: functional, organism-based
# [12] = system: Plasmodium falciparum; test: In vitro inhibition against Plasmodium falciparum FCM29 at 3 ug/mL; assay type: functional, organism-based
# [13] = system: Plasmodium falciparum; test: In vitro inhibitory concentration against Plasmodium falciparum FCM29 at 2 ug/mL; assay type: functional
# [14] = system: Plasmodium falciparum; test: In vitro inhibitory concentration against Plasmodium falciparum FCM29 at 3 ug/mL; assay type: functional
# [15] = system: Plasmodium falciparum; test: (§6) In vitro inhibitory concentration against chloroquine-enhancing Plasmodium falciparum FCM29 at 2.5 ug/mL; assay type: functional, organism-based
# [16] = system: Plasmodium falciparum; test: In vitro inhibition against Plasmodium falciparum FCM29 at 0.62 ug/mL; assay type: functional, organism-based
# [17] = system: Plasmodium falciparum; test: (§7) In vitro inhibitory concentration against chloroquine-enhancing Plasmodium falciparum FCM29 at 5 ug/mL; assay type: functional, organism-based
# [18] = system: Plasmodium falciparum; test: In vitro inhibitory concentration against Plasmodium falciparum FCM29 at 0.62 ug/mL; assay type: functional
# [19] = system: Plasmodium falciparum; test: as §6; assay type: functional
# [20] = system: Plasmodium falciparum; test: (§8) In vitro inhibitory concentration against chloroquine-enhancing Plasmodium falciparum FCM29 at 1.25 ug/mL; assay type: functional
# [21] = system: Plasmodium falciparum; test: as §8; assay type: functional, organism-based
# [22] = system: Plasmodium falciparum; test: as §7; assay type: functional
# [23] = system: Plasmodium falciparum; test: In vitro inhibitory concentration against Plasmodium falciparum FCM29 at 1.5 ug/mL; assay type: functional
# [24] = system: Plasmodium falciparum; test: In vitro inhibitory concentration against chloroquine-enhancing Plasmodium falciparum FCM29 at 0.75 ug/mL; assay type: functional
# [25] = system: Plasmodium falciparum; test: In vitro inhibitory concentration chloroquine-enhancing against Plasmodium falciparum FCM29 at 0.375 ug/mL; assay type: functional
# [26] = system: Plasmodium falciparum; test: In vitro inhibitory concentration chloroquine-enhancing against chloroquine-enhancing Plasmodium falciparum FCM29 at 0.75 ug/mL; assay type: functional, organism-based
# [27] = system: Plasmodium falciparum; test: (§9) In vitro inhibitory concentration against chloroquine-enhancing Plasmodium falciparum FCM29 at 0.6 ug/mL; assay type: functional, organism-based
# [28] = system: Plasmodium falciparum; test: In vitro inhibition against Plasmodium falciparum FCM29 at 0.3 ug/mL; assay type: functional, organism-based
# [29] = system: Plasmodium falciparum; test: In vitro inhibitory concentration against Plasmodium falciparum FCM29 at 0.3 ug/mL; assay type: functional
# [30] = system: Plasmodium falciparum; test: as §9; assay type: functional
# [31] = system: Plasmodium falciparum; test: (§10) In vitro inhibitory concentration against chloroquine-enhancing Plasmodium falciparum FCM29 at 0.5 ug/mL; assay type: functional, organism-based
# [32] = In vitro inhibitory concentration against chloroquine-enhancing Plasmodium falciparum FCM29 @ concentration of 1 ug/mL; assay type: functional
# [33] = (§11) In vitro inhibitory concentration against Plasmodium falciparum FCM29 @ concentration of 00 ug/mL; assay type: functional
# [34] = system: Plasmodium falciparum; test: In vitro inhibition against Plasmodium falciparum FCM29 at 4 ug/mL; assay type: functional, organism-based
# [35] = system: Plasmodium falciparum; test: In vitro inhibitory concentration against Plasmodium falciparum FCM29 at 4 ug/mL; assay type: functional
# [36] = system: Plasmodium falciparum; test: as §11; assay type: functional
# [37] = system: Plasmodium falciparum; test: In vitro inhibitory concentration against Plasmodium falciparum FCM29 @ concentration of 0.5 ug/mL; assay type: functional
# [38] = system: Plasmodium falciparum; test: as §10; assay type: functional
# [39] = In vitro inhibitory concentration against chloroquine-enhancing Plasmodium falciparum FCM29 @ concentration of 00 ug/mL; assay type: functional
# [40] = system: Plasmodium falciparum; test: In vitro inhibition against Plasmodium falciparum FCM29 at 0.68 ug/mL; assay type: functional, organism-based
# [41] = system: Plasmodium falciparum; test: In vitro inhibitory concentration against Plasmodium falciparum FCM29 at 0.68 ug/mL; assay type: functional
# [42] = system: Plasmodium falciparum; test: (§12) In vitro inhibitory concentration against chloroquine-enhancing Plasmodium falciparum FCM29 at 1.36 ug/mL; assay type: functional
# [43] = system: Plasmodium falciparum; test: as §12; assay type: functional, organism-based
# [44] = system: Plasmodium falciparum; test: In vitro inhibitory concentration against chloroquine-enhancing Plasmodium falciparum FCM29 at.62 ug/mL; assay type: functional, organism-based
# [45] = system: Plasmodium falciparum; test: In vitro inhibitory concentration against chloroquine-enhancing Plasmodium falciparum FCM29 at2.50 ug/mL; assay type: functional
# [46] = system: Plasmodium falciparum; test: In vitro inhibitory concentration against chloroquine-enhancing Plasmodium falciparum FCM29 at 2.50 ug/mL; assay type: functional, organism-based
structure (smiles),measurement,setting,value
CCN(CC)CCCOc1ccccc1-c1ccccc1,IC50,[1],42.9 nM
same,IC50,[2],7.6 nM
same,IC50,[3],3 nM
same,IC50,[4],3.3 µg/mL
same,IC90,[5],191 nM
same,IC90,[6],157 nM
same,IC50,[7]; Plasmodium falciparum,53.9 nM
same,IC90,[8],22.3 µg/mL
same,IC90,[9]; Plasmodium falciparum,534 nM
same,IC90,[10],301 nM
CCN(CC)CCCNc1ccccc1Br,IC50,[1],40.3 nM
same,IC50,[4],3.7 µg/mL
same,IC50,[7]; Plasmodium falciparum,58.2 nM
same,IC50,[11],28.8 nM
same,IC50,[12],6.1 nM
same,IC90,[9]; Plasmodium falciparum,290 nM
same,IC90,[13],134 nM
same,IC90,[14],153 nM
same,IC90,[10],195 nM
CCN(CC)CCCNc1cccc(Br)c1,IC50,[15],38.5 nM
same,IC50,[16],110 nM
same,IC50,[17],7.2 nM
same,IC50,[4],7.6 µg/mL
same,IC90,[18],809 nM
same,IC90,[8],80.3 µg/mL
same,IC90,[19],443 nM
same,IC90,[20],392 nM
same,IC50,[21],68.5 nM
same,IC90,[22],210 nM
CCN(CC)CCCNc1ccc(-c2ccccc2)cc1,IC50,[1],25.9 nM
same,IC50,[4],2.9 µg/mL
same,IC90,[8],18.5 µg/mL
same,IC90,[23],114 nM
same,IC90,[24],198 nM
same,IC90,[25],98.2 nM and 368 nM
same,IC50,[26],54 nM
CCN(CC)CCCOc1ccc(-c2ccccc2)cc1,IC50,[27],101 nM
same,IC50,[28],169 nM
same,IC50,[4],1.7 µg/mL
same,IC90,[8],24.4 µg/mL
same,IC90,[29],655 nM
same,IC90,[30],311 nM
CCN(CC)CCCNc1ccc(Br)cc1,IC50,[31],146 nM
same,IC50,[32],95.9 nM
same,IC50,[33],161 nM
same,IC50,[4],6.1 µg/mL
same,IC50,[11],69.3 nM
same,IC50,[34],28.7 nM
same,IC90,[8],66.7 µg/mL
same,IC90,[13],272 nM
same,IC90,[35],273 nM
same,IC90,[36],843 nM
same,IC90,[37],745 nM
same,IC90,[38],745 nM
same,IC50,[39],161 nM
CCN(CC)CCCNc1cccc(-c2ccccc2)c1,IC50,[40],160 nM
same,IC50,[4],2.3 µg/mL
same,IC90,[41],781 nM
same,IC90,[8],20.8 µg/mL
same,IC90,[42],630 nM
same,IC50,[43],109 nM
CCN(CC)CCCNc1ccccc1-c1ccccc1,IC50,[44],138 nM
same,IC50,[4],3.1 µg/mL
same,IC90,[18],820 nM
same,IC90,[8],94.6 µg/mL
same,IC90,[20],400 nM
same,IC90,[45],373 nM
same,IC50,[21],72.2 nM
same,IC50,[46],11.5 nM
CCN(CC)CCCOc1cccc(-c2ccccc2)c1,IC50,[31],152 nM
same,IC50,[2],77.7 nM
same,IC50,[4],3.1 µg/mL
same,IC90,[5],556 nM
same,IC50,[7],119 nM
same,IC50,[7]; Plasmodium falciparum,101 nM
same,IC50,[11],70.9 nM
same,IC50,[34],3.1 nM
same,IC90,[8],49.5 µg/mL
same,IC90,[9],255 nM and 745 nM
same,IC90,[13],205 nM
same,IC90,[35],73.2 nM
same,IC90,[38],736 nM
